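Grown in 96-well plates, cells were treated for 48 hours with each compound at five concentrations. Insufficient inhibition: endpoint recorded as highest concentration tested. Here, GI50 denotes the concentration required for 50% inhibition of growth. The concentration for full growth arrest is given as TGI.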
What was measured:
Test in all cases: inhibition of tumour cell growth, NCI panel, 48 h
[1] = test system: HOP-92 NSCLC
[2] = test system: SK-MEL-28 melanoma
[3] = test system: ACHN renal
[4] = test system: 786-0 renal
[5] = test system: NCI-H226 lung
[6] = test system: MOLT-4 leukemia
[7] = test system: BT-549 breast
[8] = test system: TK-10 renal
[9] = test system: RXF 393 renal
[10] = test system: MDA-MB-435
[11] = test system: NCI-H522 lung
[12] = test system: MDA-MB-231 breast
[13] = test system: MALME-3M melanoma
[14] = test system: SK-OV-3 ovarian
[15] = test system: NCI-H23 lung
[16] = test system: K-562 leukemia
[17] = test system: SNB-19 CNS
[18] = test system: NCI-H460 lung
[19] = test system: SF-268 CNS
[20] = test system: CCRF-CEM leukemia
[21] = test system: UACC-62 melanoma
[22] = test system: HL-60(TB) leukemia
[23] = test system: SK-MEL-5 melanoma
[24] = test system: LOX IMVI melanoma
[25] = test system: IGROV1 ovarian
[26] = test system: SR leukemia
[27] = test system: OVCAR-3 ovarian
[28] = test system: T-47D breast
[29] = test system: A549 NSCLC
[30] = test system: SN12C renal
[31] = test system: HT29 colon
[32] = test system: OVCAR-4 ovarian
[33] = test system: SF-295 CNS
[34] = test system: HCT-116 colon
[35] = test system: SW-620 colon
[36] = test system: DU-145 prostate
[37] = test system: PC-3 prostate
[38] = test system: RPMI-8226 leukemia
[39] = test system: HS 578T breast
[40] = test system: HCC-2998 colon
[41] = test system: KM12 colon
[42] = test system: A498 renal
[43] = test system: CAKI-1 renal
[44] = test system: UO-31 renal
[45] = test system: UACC-257 melanoma
[46] = test system: SF-539 CNS
[47] = test system: M14 melanoma
[48] = test system: OVCAR-8 ovarian
[49] = test system: HCT-15 colon
[50] = test system: MDA-MB-468 breast
[51] = test system: HOP-62 NSCLC
[52] = test system: OVCAR-5 ovarian
[53] = test system: SNB-75 CNS
[54] = test system: MCF7 breast
[55] = test system: EKVX NSCLC
[56] = test system: U251 CNS
[57] = test system: COLO 205 colon

COc1ccc(C(SCCNCc2cc(N(C)C)ccn2)(c2ccccc2)c2ccccc2)cc1
GI50 [1]: 2.16 µM
TGI [1]: 11 µM
GI50 [2]: 5.6 µM
TGI [2]: 18.7 µM
GI50 [3]: 2.48 µM
TGI [3]: 18.5 µM
GI50 [4]: 1.4 µM
TGI [4]: 7.55 µM
GI50 [5]: 4.45 µM
TGI [5]: 17.8 µM
GI50 [6]: 3.47 µM
TGI [6]: 13.6 µM
GI50 [7]: 1.92 µM
TGI [7]: 6.03 µM
GI50 [8]: 9.54 µM
TGI [8]: 21.7 µM
GI50 [9]: 2.61 µM
TGI [9]: 11.5 µM
GI50 [10]: 0.214 µM
TGI [10]: 0.475 µM
GI50 [11]: 0.707 µM
TGI [11]: 5.77 µM
GI50 [12]: 1.48 µM
TGI [12]: 4.8 µM
GI50 [13]: 3.36 µM
TGI [13]: 15.8 µM
GI50 [14]: 3.57 µM
TGI [14]: 15.9 µM
GI50 [15]: 3.12 µM
TGI [15]: 13.1 µM
GI50 [16]: 0.697 µM
TGI [16]: 13.6 µM
GI50 [17]: 3.48 µM
TGI [17]: 15.3 µM
GI50 [18]: 2.93 µM
TGI [18]: 12.5 µM
GI50 [19]: 4.02 µM
TGI [19]: 20.4 µM
GI50 [20]: 0.468 µM
TGI [20]: 15.4 µM
GI50 [21]: 4.22 µM
TGI [21]: 16.6 µM
GI50 [22]: 2.11 µM
TGI [22]: 5.28 µM
GI50 [23]: 1.08 µM
TGI [23]: 3.82 µM
GI50 [24]: 2.04 µM
TGI [24]: 11.4 µM
GI50 [25]: 3.43 µM
TGI [25]: 17.1 µM
GI50 [26]: 0.566 µM
TGI [26]: > 100 µM
GI50 [27]: 2.53 µM
TGI [27]: 12.4 µM
GI50 [28]: 4.7 µM
TGI [28]: 21.9 µM
GI50 [29]: 3.79 µM
TGI [29]: 20 µM
GI50 [30]: 1.49 µM
TGI [30]: 13.7 µM
GI50 [31]: 2.25 µM
TGI [31]: 5.66 µM
GI50 [32]: 9.25 µM
TGI [32]: 22.7 µM
GI50 [33]: 0.618 µM
TGI [33]: 11.5 µM
GI50 [34]: 0.324 µM
TGI [34]: 10.5 µM
GI50 [35]: 0.916 µM
TGI [35]: 16.8 µM
GI50 [36]: 3.5 µM
TGI [36]: 12.8 µM
GI50 [37]: 1.67 µM
TGI [37]: 15 µM
GI50 [38]: 0.954 µM
TGI [38]: 10 µM
GI50 [39]: 1.37 µM
TGI [39]: 9.32 µM
GI50 [40]: 0.7 µM
TGI [40]: 2.14 µM
GI50 [41]: 3.66 µM
TGI [41]: 16 µM
GI50 [42]: 15.6 µM
TGI [42]: 30.1 µM
GI50 [43]: 3.54 µM
TGI [43]: 17.6 µM
GI50 [44]: 3.78 µM
TGI [44]: 17.5 µM
GI50 [45]: 5.71 µM
TGI [45]: 19.8 µM
GI50 [46]: 1.61 µM
TGI [46]: 3.83 µM
GI50 [47]: 0.447 µM
TGI [47]: 2.48 µM
GI50 [48]: 1.87 µM
TGI [48]: 18.1 µM
GI50 [49]: 0.432 µM
TGI [49]: 11.6 µM
GI50 [50]: 0.544 µM
TGI [50]: 2.9 µM
GI50 [51]: 4.34 µM
TGI [51]: 19.8 µM
GI50 [52]: 3.07 µM
TGI [52]: 11.9 µM
GI50 [53]: 2.86 µM
TGI [53]: 13.6 µM
GI50 [54]: 0.322 µM
TGI [54]: 11 µM
GI50 [55]: 1.5 µM
TGI [55]: 17.1 µM
GI50 [56]: 0.592 µM
TGI [56]: 13.6 µM
GI50 [57]: 1.09 µM
TGI [57]: 2.97 µM
